The target in the experiment is T1, human Bradykinin B1 receptor (Homo sapiens, UniProt P46663).
T1 construct: host or cells: CHO-K1
T1 sequence (P46663 1-353): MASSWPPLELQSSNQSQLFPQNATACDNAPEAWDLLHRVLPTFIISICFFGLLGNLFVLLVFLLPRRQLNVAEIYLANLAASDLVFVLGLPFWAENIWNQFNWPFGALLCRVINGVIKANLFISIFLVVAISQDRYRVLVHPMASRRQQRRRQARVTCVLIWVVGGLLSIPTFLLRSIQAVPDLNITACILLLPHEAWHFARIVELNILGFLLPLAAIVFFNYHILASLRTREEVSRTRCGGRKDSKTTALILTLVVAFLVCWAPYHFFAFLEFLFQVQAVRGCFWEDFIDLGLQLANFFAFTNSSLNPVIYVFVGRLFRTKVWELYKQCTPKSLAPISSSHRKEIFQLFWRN
As to the kind of experiment: Calcium flux assay (FLIPR), CHO-K1 cells expressing human Bradykinin B1 receptor, absence of 0.1% BSA (hB1 free IC50). The settings on record: absence of 0.1% BSA in assay buffer. Type of experiment: cell-based. The protocol:
The potency to inhibit the Bradykinin B1 receptor was determined for the Compound Examples of this invention in a cell-based fluorescent calcium-mobilisation assay. The assay measures the ability of Compound Examples to inhibit Bradykinin B1 receptor agonist-induced increase of intracellular free Ca^2+ in the cell line expressing Bradykinin B1 receptor. Specifically, calcium indicator-loaded cells are pre-incubated in the absence or presence of different concentrations of Compound Examples followed by the stimulation with a selective Bradykinin B1 receptor agonist peptide. The change of the intracellular Ca^2+ concentration is monitored with a fluorescent plate reader FLIPR^TETRA® (Molecular Devices).
Calcium Flux Assays (FLIPR) with Cells Expressing Human Bradykinin B1 Receptor (hB1)
CHO-K1 cell line expressing human Bradykinin B1 receptor is purchased from Euroscreen (Gosselies, Belgium, with reference name hB1-D1). The cells are grown in Nutrient Mixture Ham's F12 (Sigma) containing 10% Foetal bovine serum (Sigma) and 400 μg/mL G418 (Sigma), 5 μg/mL puromycin (Sigma).
The effect of BSA on the potency of endothelin receptor antagonists have been described in the prior art (Wu-Wong, J. R. et al. (1997), JPET 281: 791-798). The teaching can be applied in analogy to testing the potency of Bradykinin B1 receptor antagonist in the FLIPR assays.
For the calcium flux assay, 80% confluent cells are detached from the culture vessels with Versene (Gibco), and seeded into 384-well plates (Cell binding Surface; Corning, NY; #3683) at a density of 15,000 cells per well. Cells are seeded in a volume of 50 μL in medium without antibiotics and incubated overnight in a humidified atmosphere with 5% CO2 at 37° C. […] The calcium indicator loaded cells are incubated at 37° C. for 2 hrs. Extracellular dye is then removed and each well is filled with 45 μL of assay buffer. Cell plates are kept in dark until used. Compound examples are assayed at 8 concentrations in triplicate. Serial 10-fold dilutions in 100% DMSO are made at a 100-times higher concentration than the final concentration, and then diluted 1:10 in assay buffer. 5 μL of each diluted compound is added to the well of cell plates (yielding final concentration with 1% DMSO), and incubated for 30 min at 28° C. before the addition of Bradykinin B1 receptor agonist on the FLIPR instrument.
The addition of agonist 20 μl per well to the assay plate is carried out on the FLIPR instrument while continuously monitoring Ca2+-dependent fluorescence at 538 nm. A peptide antagonist Lys-(Des-Arg-Leu)-Bradykinin (Bachem, Brackley) at 20 µM is used to determine the full inhibition as control.
Peak fluorescence is used to determine the response to agonist obtained at each concentration of Compound Examples by the following equation: % Response=100*(RFU(compound)−RFU(control))/(RFU(DMSO)−RFU(control))
RFU means relative fluorescence units.
Control means full inhibition by the peptide antagonist Lys-(Des-Arg-Leu)-Bradykinin at 20 µM.
The response values are plotted against the logarithm of the compound concentrations. The Compound Examples are tested in triplicates per plate and mean values are plotted in Excel XLfit to determine IC50 values, percentage of maximal inhibition and the Hill slopes.
For orientation: Calcium assays in cells follow changes in intracellular calcium, usually with a dye or a luminescent sensor.

Structures are written as SMILES.

Take `CC(C)n1cc(-c2c(F)cc(NC(=O)C3(c4ccc(C(F)(F)F)cc4)CC3)cc2C(=O)O)cn1` [Example 85, 3-Fluoro-2-[1-(propan-2-yl)-1H-pyrazol-4-yl]-5-[({1-[4-(trifluoromethyl)phenyl]cyclopropyl}carbonyl)amino]benzoic acid]: the IC50 is 71 nM.

As for `CC(C)n1cc(-c2c(F)cc(NC(=O)C3(c4ccc(OC(F)(F)F)cc4)CC3)cc2C(=O)O)cn1` [Example 86, 3-Fluoro-2-[1-(propan-2-yl)-1H-pyrazol-4-yl]-5-[({1-[4-(trifluoromethoxy)phenyl]cyclopropyl}carbonyl)amino]benzoic acid], the half-maximal inhibitory concentration (IC50) came to 69 nM. The same measure for `Cc1ccc(C2(C(=O)Nc3cc(F)c(-c4cnn(C(C)C)c4)c(C(=O)O)c3)CC2)c(F)c1` [Example 87, 3-Fluoro-5-({[1-(2-fluoro-4-methylphenyl)cyclopropyl]carbonyl}amino)-2-[1-(propan-2-yl)-1H-pyrazol-4-yl]benzoic acid]: 38 nM.

Consider `CC(C)(C)c1cn(-c2c(F)cc(NC(=O)C3(c4ccc(C(F)(F)F)cc4F)CC3)cc2C(=O)O)cn1` [Example 90, 2-(4-tert-Butyl-1H-imidazol-1-yl)-3-fluoro-5-[({1-[2-fluoro-4-(trifluoromethyl)phenyl]cyclopropyl}carbonyl)amino]benzoic acid], for which the IC50 came out at 24 nM.

Regarding `CC(C)Cn1cc(-c2c(F)cc(NC(=O)C3(c4ccc(C(F)(F)F)cc4F)CC3)cc2C(=O)O)cn1` [Example 92, 3-Fluoro-5-[({1-[2-fluoro-4-(trifluoromethyl)phenyl]cyclopropyl}carbonyl)amino]-2-(1-isobutyl-1H-pyrazol-4-yl)benzoic acid], the half-inhibitory concentration (IC50) was determined as 29 nM. The figure for `CC(C)(C)n1cc(-c2c(F)cc(NC(=O)C3(c4ccc(C(F)(F)F)cc4F)CC3)cc2C(=O)O)cn1` [Example 93, 2-(1-tert-Butyl-1H-pyrazol-4-yl)-3-fluoro-5-[({1-[2-fluoro-4-(trifluoromethyl)phenyl]cyclopropyl}carbonyl)amino]benzoic acid] is 61 nM. The figure for `O=C(O)c1cc(NC(=O)C2(c3ccc(C(F)(F)F)cc3F)CC2)cc(F)c1-c1ccc(C(F)F)nc1` [Example 94, 2-[6-(Difluoromethyl)pyridin-3-yl]-3-fluoro-5-[({1-[2-fluoro-4-(trifluoromethyl)phenyl]cyclopropyl}carbonyl)amino]benzoic acid] is 20 nM; for `O=C(O)c1c(-c2cnn(C3CCC3)c2)ccc(NC(=O)C2(c3ccc(C(F)(F)F)cc3F)CC2)c1F` [Example 98, 6-(1-Cyclobutyl-1H-pyrazol-4-yl)-2-fluoro-3-[({1-[2-fluoro-4-(trifluoromethyl)phenyl]cyclopropyl}carbonyl)amino]benzoic acid] it is 2700 nM. The same measure for `O=C(O)c1c(-c2cnn(C3CCC3)c2)ccc(NC(=O)C2(c3ccc(OC(F)(F)F)cc3F)CC2)c1F` [Example 99, 6-(1-Cyclobutyl-1H-pyrazol-4-yl)-2-fluoro-3-[({1-[2-fluoro-4-(trifluoromethoxy)phenyl]cyclopropyl}carbonyl)amino]benzoic acid]: 2000 nM; for `O=C(O)c1cc(NC(=O)C2(c3ccc(C(F)(F)F)cc3F)CC2)cc(Cl)c1-c1ccc(C(F)F)nc1` [Example 102, 3-Chloro-2-[6-(difluoromethyl)pyridin-3-yl]-5-[({1-[2-fluoro-4-(trifluoromethyl)phenyl]cyclopropyl}carbonyl)amino]benzoic acid]: 110 nM; for `O=C(O)c1cc(NC(=O)C2(c3ccc(OC(F)(F)F)cc3F)CC2)cc(Cl)c1-c1ccc(C(F)F)nc1` [Example 103, 3-Chloro-2-[6-(difluoromethyl)pyridin-3-yl]-5-[({1-[2-fluoro-4-(trifluoromethoxy)phenyl]cyclopropyl}carbonyl)amino]benzoic acid]: 62 nM. Regarding `O=C(O)c1cc(NC(=O)C2(c3ccc(C(F)(F)F)cc3F)CC2)cc(Cl)c1-c1ccc(C(F)(F)F)nc1` [Example 104, 3-Chloro-5-[({1-[2-fluoro-4-(trifluoromethyl)phenyl]cyclopropyl}carbonyl)amino]-2-[6-(trifluoromethyl)pyridin-3-yl]benzoic acid], the IC50 worked out at 130 nM. The same measure for `Cc1cc(NC(=O)C2(c3ccc(C(F)(F)F)cc3F)CC2)cc(C(=O)O)c1-c1ccc(C(F)F)nc1` [Example 109, 2-[6-(Difluoromethyl)pyridin-3-yl]-5-[({1-[2-fluoro-4-(trifluoromethyl)phenyl]cyclopropyl}carbonyl)amino]-3-methylbenzoic acid]: 770 nM. Take `Cc1cc(NC(=O)C2(c3ccc(OC(F)(F)F)cc3F)CC2)cc(C(=O)O)c1-c1ccc(C(F)F)nc1` [Example 110, 2-[6-(Difluoromethyl)pyridin-3-yl]-5-[({1-[2-fluoro-4-(trifluoromethoxy)phenyl]cyclopropyl}carbonyl)amino]-3-methylbenzoic acid]: the IC50 was 580 nM. The figure for `Cc1cc(NC(=O)C2(c3ccc(C(F)(F)F)cc3F)CC2)cc(C(=O)O)c1-c1ccc(C(F)(F)F)nc1` [Example 111, 5-[({1-[2-Fluoro-4-(trifluoromethyl)phenyl]cyclopropyl}carbonyl)amino]-3-methyl-2-[6-(trifluoromethyl)pyridin-3-yl]benzoic acid] is 2400 nM; for `CCC(F)(F)c1ccc(-c2c(C)cc(NC(=O)C3(c4ccc(C(F)(F)F)cc4F)CC3)cc2C(=O)O)cn1` [Example 112, 2-[6-(1,1-Difluoropropyl)pyridin-3-yl]-5-[({1-[2-fluoro-4-(trifluoromethyl)phenyl]cyclopropyl}carbonyl)amino]-3-methylbenzoic acid] it is 240 nM; for `CCC(F)(F)c1ccc(-c2c(C)cc(NC(=O)C3(c4ccc(OC(F)(F)F)cc4F)CC3)cc2C(=O)O)cn1` [Example 113, 2-[6-(1,1-Difluoropropyl)pyridin-3-yl]-5-[({1-[2-fluoro-4-(trifluoromethoxy)phenyl]cyclopropyl}carbonyl)amino]-3-methylbenzoic acid] it is 120 nM. The same measure for `CCCn1cc(-c2ccc(NC(=O)C3(c4ccc(C(F)(F)F)cc4F)CC3)cc2C(=O)O)cn1` [Example 114, 5-[({1-[2-Fluoro-4-(trifluoromethyl)phenyl]cyclopropyl}carbonyl)amino]-2-(1-propyl-1H-pyrazol-4-yl)benzoic acid]: 85 nM; for `CCCn1cc(-c2ccc(NC(=O)C3(c4ccc(OC(F)(F)F)cc4F)CC3)cc2C(=O)O)cn1` [Example 115, 5-[({1-[2-Fluoro-4-(trifluoromethoxy)phenyl]cyclopropyl}carbonyl)amino]-2-(1-propyl-1H-pyrazol-4-yl)benzoic acid]: 120 nM; for `CC(C)Cn1cc(-c2ccc(NC(=O)C3(c4ccc(F)cc4F)CC3)cc2C(=O)O)cn1` [Example 116, 5-({[1-(2,4-Difluorophenyl)cyclopropyl]carbonyl}amino)-2-(1-isobutyl-1H-pyrazol-4-yl)benzoic acid]: 210 nM.

As to `CC(C)Cn1cc(-c2ccc(NC(=O)C3(c4ccc(Cl)cc4F)CC3)cc2C(=O)O)cn1` [Example 117, 5-({[1-(4-Chloro-2-fluorophenyl)cyclopropyl]carbonyl}amino)-2-(1-isobutyl-1H-pyrazol-4-yl)benzoic acid], the IC50 is 56 nM.

Usually IC50 stands for the concentration that inhibits the measured activity by half.
